In patent publication US10765114B2, “4-amino-6-(pyridyl and 2-substitutedphenyl)-picolinates and 6-amino-2-(pyridyl and 2-substitutedphenyl)-pyrimidine-4-carboxylates and their use as herbicides” (Dow AgroSciences LLC, priority 2013, dated 2020):

Tests used:
Experiment in all cases: Post-Emergent Test III (Wheat and Barley)
KCHSC (kochia) = type: in vivo, Kochia scoparia; conditions: for pest or weed control at 17.5 g/ha / pest or weed control at 35 g/ha / pest or weed control at 70 g/ha: Bassia scoparia, post-emergence, 504 h, KCHSC kochia (Kochia scoparia), post-emergent, read-out: Visual Growth Reduction (%) 21 Days After Application, KCHSC; for pest or weed control at 17.5 g/ha: 17.5 g ai/ha; for pest or weed control at 35 g/ha: 35 g ai/ha; for pest or weed control at 70 g/ha: 70 g ai/ha; for GR50, KCHSC: growth reduction of 50%; for GR50, KCHSC / GR80, KCHSC / GR90, KCHSC: probit analysis, 21 days; for GR80, KCHSC: growth reduction of 80%; for GR90, KCHSC: growth reduction of 90%
Description: (§1) Seeds of the desired test plant species were planted in Sun Gro MetroMix® 306 planting mixture, which typically has a pH of 6.0 to 6.8 and an organic matter content of about 30 percent, in plastic pots with a surface area of 103.2 square centimeters (cm^2). When required to ensure good germination and healthy plants, a fungicide treatment and/or other chemical or physical treatment was applied. The plants were grown for 7-36 days in a greenhouse with an approximate 14 h photoperiod which was maintained at about 18° C. during the day and 17° C. during the night. Nutrients and water were added on a regular basis and supplemental lighting was provided with overhead metal halide 1000-Watt lamps as necessary. The plants were employed for testing when they reached the second or third true leaf stage.
(§2) A weighed amount, determined by the highest rate to be tested, of each test compound was placed in a 25 mL glass vial and was dissolved in 4 mL of a 97:3 v/v mixture of acetone and DMSO to obtain concentrated stock solutions. […] The concentrated stock solutions obtained were diluted with 20 mL of an aqueous mixture containing acetone, water, isopropyl alcohol, DMSO, Agri-Dex crop oil concentrate, and X-77 surfactant in a 48:39:10:1.5:1.5:0.02 v/v ratio to obtain spray solutions containing the highest application rates. Additional application rates were obtained by serial dilution of 12 mL of the high rate solution into a solution containing 2 mL of 97:3 v/v mixture of acetone and DMSO and 10 mL of an aqueous mixture containing acetone, water, isopropyl alcohol, DMSO, Agri-Dex crop oil concentrate, and X-77 surfactant in a 48:39:10:1.5:1.5:0.02 v/v ratio to obtain ½×, ¼×, ⅛× and 1/16× rates of the high rate. Compound requirements are based upon a 12 mL application volume at a rate of 187 liters per hectare (L/ha). Formulated compounds were applied to the plant material with an overhead Mandel track sprayer equipped with 8002E nozzles calibrated to deliver 187 L/ha over an application area of 0.503 square meters at a spray height of 18 inches (43 cm) above the average plant canopy height. Control plants were sprayed in the same manner with the solvent blank.
(§3) The treated plants and control plants were placed in a greenhouse as described above and watered by subirrigation to prevent wash-off of the test compounds. After 21 dAYS, the condition of the test plants as compared with that of the untreated plants was determined visually and scored on a scale of 0 to 100 percent where 0 corresponds to no injury and 100 corresponds to complete kill and presented as indicated in Table A.
(§4) By applying the well-accepted probit analysis as described by J. Berkson in Journal of the American Statistical Society, 48, 565 (1953) and by D. Finney in “Probit Analysis” Cambridge University Press (1952), herbicidal injury of a specific compound at various rates can be used to calculate GR10, GR20, GR50, GR80 and GR90 values, which are defined as growth reduction factors that correspond to the effective dose of herbicide required to provide plant growth reduction (GR) of 10 percent, 20 percent, 50 percent, 80 percent and 90 percent, respectively. Probit analysis was applied to data collected from multiple dose rates of individual compounds utilizing the procedures explained in the following examples. The analysis of those dose rates is captured in the following tables.

HORSS = type: in vivo; conditions: crop; for Visual Growth Reduction (%) 21 Days After Application, HORSS: HORSS barley (Hordeum vulgare), post-emergent; for GR10, HORSS / GR20, HORSS: HORSS barley, probit analysis, 21 days; for GR10, HORSS: growth reduction of 10%; for GR20, HORSS: growth reduction of 20%
Description: as §1, §2, §3, §4

TRZSS = type: in vivo; conditions: crop; for Visual Growth Reduction (%) 21 Days After Application, TRZSS: TRZSS wheat (Triticum aestivum), post-emergent; for GR10, TRZSS / GR20, TRZSS: TRZSS wheat, probit analysis, 21 days; for GR10, TRZSS: growth reduction of 10%; for GR20, TRZSS: growth reduction of 20%
Description: as §1, §2, §3, §4

PAPRH (common poppy) = type: in vivo, Papaver rhoeas; conditions: for Visual Growth Reduction (%) 21 Days After Application, PAPRH: PAPRH common poppy (Papaver rhoeas), post-emergent; for GR50, PAPRH: growth reduction of 50%; for GR50, PAPRH / GR80, PAPRH / GR90, PAPRH: probit analysis, 21 days; for GR80, PAPRH: growth reduction of 80%; for GR90, PAPRH: growth reduction of 90%
Description: as §1, §2, §3, §4

POLCO (wild buckwheat) = type: in vivo, Polygonum convolvulus; conditions: for Visual Growth Reduction (%) 21 Days After Application, POLCO: POLCO wild buckwheat (Polygonum convolvulus), post-emergent; for GR50, POLCO: growth reduction of 50%; for GR50, POLCO / GR80, POLCO / GR90, POLCO: probit analysis, 21 days; for GR80, POLCO: growth reduction of 80%; for GR90, POLCO: growth reduction of 90%
Description: as §1, §2, §3, §4

SASKR (Russian thistle) = type: in vivo, Salsola tragus; conditions: for Visual Growth Reduction (%) 21 Days After Application, SASKR: SASKR Russian thistle (Salsola iberica), post-emergent; for GR50, SASKR: growth reduction of 50%; for GR50, SASKR / GR80, SASKR / GR90, SASKR: probit analysis, 21 days; for GR80, SASKR: growth reduction of 80%; for GR90, SASKR: growth reduction of 90%
Description: as §1, §2, §3, §4

[1] = test system: VERPE (Persian speedwell); type: in vivo, Veronica persica; conditions: for Visual Growth Reduction (%) 21 Days After Application, VERPE: VERPE bird's-eye speedwell (Veronica persica), post-emergent; for GR50, VERPE: growth reduction of 50%; for GR50, VERPE / GR80, VERPE / GR90, VERPE: probit analysis, 21 days; for GR80, VERPE: growth reduction of 80%; for GR90, VERPE: growth reduction of 90%
Description: as §1, §2, §3, §4

Structure (SMILES) | pest or weed control at 17.5 g/ha (KCHSC (kochia)) [%] | pest or weed control at 35 g/ha (KCHSC (kochia)) [%] | pest or weed control at 70 g/ha (KCHSC (kochia)) [%] | GR50, KCHSC (KCHSC (kochia)) [g ai/ha] | GR80, KCHSC (KCHSC (kochia)) [g ai/ha] | GR90, KCHSC (KCHSC (kochia)) [g ai/ha] | Visual Growth Reduction (%) 21 Days After Application, HORSS (HORSS; 17.5 g ai/ha) | Visual Growth Reduction (%) 21 Days After Application, HORSS (HORSS; 35 g ai/ha) | Visual Growth Reduction (%) 21 Days After Application, HORSS (HORSS; 70 g ai/ha) | GR10, HORSS (HORSS) [g ai/ha] | GR20, HORSS (HORSS) [g ai/ha] | Visual Growth Reduction (%) 21 Days After Application, TRZSS (TRZSS; 17.5 g ai/ha) | Visual Growth Reduction (%) 21 Days After Application, TRZSS (TRZSS; 35 g ai/ha) | Visual Growth Reduction (%) 21 Days After Application, TRZSS (TRZSS; 70 g ai/ha) | GR10, TRZSS (TRZSS) [g ai/ha] | GR20, TRZSS (TRZSS) [g ai/ha] | Visual Growth Reduction (%) 21 Days After Application, PAPRH (PAPRH (common poppy); 17.5 g ai/ha) | Visual Growth Reduction (%) 21 Days After Application, PAPRH (PAPRH (common poppy); 35 g ai/ha) | Visual Growth Reduction (%) 21 Days After Application, PAPRH (PAPRH (common poppy); 70 g ai/ha) | GR50, PAPRH (PAPRH (common poppy)) [g ai/ha] | other results
COC(=O)c1nc(-c2ccc(Br)nc2)c(F)c(N)c1Cl [Compound 22, methyl 4-amino-6′-bromo-5-chloro-3-fluoro-[2,3′-bipyridine]-6-carboxylate] | 95 to 100 | 95 to 100 | 95 to 100 | 3 | 8 | 14 | B (85-94) | B (85-94) | A (95-100) | 1 | 1 | C (75-84) | B (85-94) | B (85-94) | 1 | 1 | A (95-100) | A (95-100) | A (95-100) | 1 | GR80, PAPRH (PAPRH (common poppy)): 1 g ai/ha; GR90, PAPRH (PAPRH (common poppy)): 1 g ai/ha; Visual Growth Reduction (%) 21 Days After Application, POLCO (POLCO (wild buckwheat); 17.5 g ai/ha): E (45-59); Visual Growth Reduction (%) 21 Days After Application, POLCO (POLCO (wild buckwheat); 35 g ai/ha): E (45-59); Visual Growth Reduction (%) 21 Days After Application, POLCO (POLCO (wild buckwheat); 70 g ai/ha): D (60-74); GR50, POLCO (POLCO (wild buckwheat)): 26 g ai/ha; GR80, POLCO (POLCO (wild buckwheat)): >140 g ai/ha; GR90, POLCO (POLCO (wild buckwheat)): >140 g ai/ha; Visual Growth Reduction (%) 21 Days After Application, SASKR (SASKR (Russian thistle); 17.5 g ai/ha): C (75-84); Visual Growth Reduction (%) 21 Days After Application, SASKR (SASKR (Russian thistle); 35 g ai/ha): C (75-84); Visual Growth Reduction (%) 21 Days After Application, SASKR (SASKR (Russian thistle); 70 g ai/ha): B (85-94); GR50, SASKR (SASKR (Russian thistle)): 5 g ai/ha; GR80, SASKR (SASKR (Russian thistle)): 36 g ai/ha; GR90, SASKR (SASKR (Russian thistle)): 95 g ai/ha; Visual Growth Reduction (%) 21 Days After Application, VERPE ([1]; 17.5 g ai/ha): D (60-74); Visual Growth Reduction (%) 21 Days After Application, VERPE ([1]; 35 g ai/ha): C (75-84); Visual Growth Reduction (%) 21 Days After Application, VERPE ([1]; 70 g ai/ha): A (95-100); GR50, VERPE [1]: 9 g ai/ha; GR80, VERPE [1]: 28 g ai/ha; GR90, VERPE [1]: 50 g ai/ha
Nc1cc(-c2ccc(Cl)c(Cl)c2Cl)nc(C(=O)O)c1Cl [Compound 93] | 85 to 94 | 85 to 94 | 95 to 100 | 2 | 10 | 27 | C (75-84) | B (85-94) | B (85-94) | 1 | 1 | C (75-84) | B (85-94) | B (85-94) | 1 | 1 | C (75-84) | C (75-84) | B (85-94) | 1 | GR80, PAPRH (PAPRH (common poppy)): 27 g ai/ha; GR90, PAPRH (PAPRH (common poppy)): >140 g ai/ha; Visual Growth Reduction (%) 21 Days After Application, POLCO (POLCO (wild buckwheat); 17.5 g ai/ha): B (85-94); Visual Growth Reduction (%) 21 Days After Application, POLCO (POLCO (wild buckwheat); 35 g ai/ha): B (85-94); Visual Growth Reduction (%) 21 Days After Application, POLCO (POLCO (wild buckwheat); 70 g ai/ha): A (95-100); GR50, POLCO (POLCO (wild buckwheat)): 2 g ai/ha; GR80, POLCO (POLCO (wild buckwheat)): 7 g ai/ha; GR90, POLCO (POLCO (wild buckwheat)): 13 g ai/ha; Visual Growth Reduction (%) 21 Days After Application, SASKR (SASKR (Russian thistle); 17.5 g ai/ha): B (85-94); Visual Growth Reduction (%) 21 Days After Application, SASKR (SASKR (Russian thistle); 35 g ai/ha): B (85-94); Visual Growth Reduction (%) 21 Days After Application, SASKR (SASKR (Russian thistle); 70 g ai/ha): B (85-94); GR50, SASKR (SASKR (Russian thistle)): 1 g ai/ha; GR80, SASKR (SASKR (Russian thistle)): 10 g ai/ha; GR90, SASKR (SASKR (Russian thistle)): 34 g ai/ha; Visual Growth Reduction (%) 21 Days After Application, VERPE ([1]; 17.5 g ai/ha): E (45-59); Visual Growth Reduction (%) 21 Days After Application, VERPE ([1]; 35 g ai/ha): D (60-74); Visual Growth Reduction (%) 21 Days After Application, VERPE ([1]; 70 g ai/ha): D (60-74); GR50, VERPE [1]: 24 g ai/ha; GR80, VERPE [1]: >140 g ai/ha; GR90, VERPE [1]: >140 g ai/ha
